Patent US10183021B2, “sGC stimulators” (Ironwood Pharmaceuticals, Inc., priority 2013, dated 2019)

Experiments:
[1] = system: Sprague-Dawley rats; assay: Blood pressure change in Sprague-Dawley rats (Example 4); assay type: in vivo, rat; conditions: conscious male Sprague-Dawley rats, PO, 10 mg/kg
Experimental: Male rats (250-350 g body weight, supplied by Harlan Laboratories) were anesthetized with ketamine/xylazine and a heparinized saline fluid filled catheter implanted into the right femoral artery. The catheter was exteriorized between the scapula, capped, and the animal allowed to recover for at least 7 days post surgery prior to any compound testing. Prior to testing animals were maintained on normal diet, with free access to drinking water, under a 12 hour light-dark cycle.
On the day of experimentation, under inhaled isoflurane anesthesia, the catheter was uncapped and connected to a tether (Instech Labs) and pressure transducer (Harvard Apparatus). Blood pressure and heart rate were subsequently captured and analyzed with a dedicated data capture system (PowerLab, ADInstruments). Data sampling rates were set at 1 cycle per second. Once connected, each rat was allowed to recover from anesthesia and baseline blood pressure and heart rate levels were established in these conscious, freely-moving animals. Once baseline was established either vehicle (0.5% methylcellulose or 100% PEG400) or test article was administered orally (PO, 10 mg/kg) and the effects on blood pressure and heart rate monitored for up to 24 hours.
Data are reported as hourly averages and changes in blood pressure are calculated from subtracting individual baseline on an hourly basis.

[2] = biological target: T1, soluble guanylate cyclase (sGC) (Homo sapiens (Human), UniProt Q02108+Q02153); assay: sGC-HEK-cGMP assay with SNP incubation, HTRF detection (Example 2B); assay type: cell-based; conditions: HEK293 cells, 10 μM SNP; for Emax: 100% = BAY 41-2272 at 10 μM + 100 μM SNP, read-out: HEK assay Emax - unconstrained (%); for EC50: read-out: HEK assay EC50 - unconstrained
Experimental: Human embryonic kidney cells (HEK293), endogenously expressing soluble guanylate cyclase (sGC), were used to evaluate the activity of test compounds. Compounds stimulating the sGC enzyme should cause an increase in the intracellular concentration of cGMP. HEK 293 cells were seeded in Dulbecco's Modification of Eagle's Medium supplemented with fetal bovine serum (10% final) and L-glutamine (2 mM final) in a 200 μL volume at a density of 1×10^5 cells/well in a poly-D-lysine coated 96 well flat bottom plate and grown overnight at 37° C. Medium was aspirated and cells were washed with 1× Hank's Buffered Saline Salt Solution (200 μL). Cells were then incubated for 15 minutes at 37° C. with 200 μL of a 0.5 mM 3-isobutyl-1-methylxanthine (IBMX) solution. Test article and sodium nitroprusside solutions were then added to the assay mixture (2 μL each) and the resulting mixture incubated at 37° C. for 10 minutes. After the 10 minute incubation, the assay mixture was aspirated and 0.1M HCl (200 μL) was added to the cells. The plate was incubated at 4° C. for 30 minutes in the 0.1M HCl to stop the reaction and lyse the cells. The plates were then centrifuged at 1,200 g for 5 minutes at room temperature. GMP levels were determined using a cGMP HTRF assay (Cisbio Product #62GM2PEC). For each sample, 5 uL of HEK assay supernatant was diluted 1:5 in HTRF kit assay diluent and transferred to a well of the assay plate, and the HTRF assay was performed according to the HTRF kit manufacturer's instructions. Sample calculations were performed using high and low controls, where high control was supernatant from HEK assay performed in the presence of 10 uM Bay 41-2272+100 uM SNP, and the low control was the supernatant from the HEK assay performed in the presence of vehicle. A cGMP standard solution was prepared in 0.1 M HCl and diluted in order to perform a cGMP standard curve using the HTRF assay. Using Mean Ratio data from the HTRF assay, sample date were normalized according to the equation: 100*(Sample−Low Control)/(High Control−Low Control). Data were fit to a 3-parameter log agonist dose response (Top (% EMax), Bottom, log EC50) using Graphpad (Prism Software). Data in Table 4 was obtained using this modified assay procedure. (x μM concentration for test article solution and 10 μM concentration for SNP solution; wherein x is one of the following concentrations: 30 μM, 10 μM, 3 μM, 1 μM, 0.3 μM, 0.1 μM, 0.03 μM, 0.01 μM, 0.003 μM, 0.001 μM, 0.0003 μM and 0.01 nM.

[3] = biological target: T1, soluble guanylate cyclase (sGC); assay: sGC-HEK-cGMP assay with SNP incubation, LC/MS detection (Example 2A); assay type: cell-based; conditions: HEK293 cells, 10 μM SNP, LC/MS detection; for Emax: 100% = BAY 41-2272 at 10 μM, read-out: HEK assay Emax - unconstrained (%); for EC50: top of curve not fitted to 100%, read-out: HEK assay EC50 - unconstrained
Method in brief: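 HEK293 cells with endogenous sGC were pretreated 15 min at 37 °C with 0.5 mM IBMX, then exposed 10 min at 37 °C to compound (added from 0.0001–30 μM solutions) plus SNP (from 10 μM solution). After 0.1 M HCl lysis, cGMP was quantified by LC/MS against a standard curve.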

[4] = biological target: T1, soluble guanylate cyclase (sGC); assay: sGC-HEK-cGMP assay, new protocol with DETA-NONOate, LC/MS detection (Example 2C); assay type: cell-based; conditions: read-out: Absolute EC50 (uM) - binned

T1 sequence (Q02153 whole entry): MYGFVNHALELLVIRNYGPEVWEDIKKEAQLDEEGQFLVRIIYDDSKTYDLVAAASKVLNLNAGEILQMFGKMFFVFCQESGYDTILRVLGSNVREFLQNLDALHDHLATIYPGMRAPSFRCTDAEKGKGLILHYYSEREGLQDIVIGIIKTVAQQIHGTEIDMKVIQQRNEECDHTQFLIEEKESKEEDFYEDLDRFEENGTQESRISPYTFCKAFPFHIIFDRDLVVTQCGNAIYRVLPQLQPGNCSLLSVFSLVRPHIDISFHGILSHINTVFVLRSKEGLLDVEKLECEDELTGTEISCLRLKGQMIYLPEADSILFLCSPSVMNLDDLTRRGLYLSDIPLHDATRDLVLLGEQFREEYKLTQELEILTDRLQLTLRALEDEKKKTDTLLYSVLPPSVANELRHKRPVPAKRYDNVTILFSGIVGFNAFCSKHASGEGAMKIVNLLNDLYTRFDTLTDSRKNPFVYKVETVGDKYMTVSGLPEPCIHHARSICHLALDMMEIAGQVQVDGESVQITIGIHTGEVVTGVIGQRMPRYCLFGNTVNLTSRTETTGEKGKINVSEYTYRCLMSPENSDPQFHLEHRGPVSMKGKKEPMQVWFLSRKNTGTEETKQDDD
T1 sequence (Q02108 whole entry): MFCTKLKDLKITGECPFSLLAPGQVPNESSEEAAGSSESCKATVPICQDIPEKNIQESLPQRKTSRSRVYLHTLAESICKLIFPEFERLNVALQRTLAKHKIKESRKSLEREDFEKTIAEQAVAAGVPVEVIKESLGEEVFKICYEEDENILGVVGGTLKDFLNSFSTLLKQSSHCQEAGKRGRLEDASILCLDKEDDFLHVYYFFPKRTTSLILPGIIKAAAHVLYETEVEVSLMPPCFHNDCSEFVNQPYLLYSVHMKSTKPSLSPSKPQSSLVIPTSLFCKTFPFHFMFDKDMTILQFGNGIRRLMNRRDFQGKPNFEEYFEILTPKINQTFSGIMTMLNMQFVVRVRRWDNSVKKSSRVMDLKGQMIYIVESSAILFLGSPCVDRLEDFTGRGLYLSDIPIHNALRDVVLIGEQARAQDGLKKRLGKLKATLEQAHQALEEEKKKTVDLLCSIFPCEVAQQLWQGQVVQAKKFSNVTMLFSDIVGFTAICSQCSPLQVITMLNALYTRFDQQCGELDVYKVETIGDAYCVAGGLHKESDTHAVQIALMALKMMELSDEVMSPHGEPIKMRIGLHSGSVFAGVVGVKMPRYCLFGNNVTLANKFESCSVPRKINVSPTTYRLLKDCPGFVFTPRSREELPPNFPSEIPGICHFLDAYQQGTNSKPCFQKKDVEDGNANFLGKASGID

Compound	Rat Mean Arterial Pressure peak change from baseline at 10 mpk [1]	Emax [2] [%]	Emax [3] [%]	EC50 [2] [nM]	EC50 [3] [nM]	EC50 [4] [µM]
C[C@H]1CCCN(c2nc(-c3cc(-c4ccon4)n(Cc4ccccc4F)n3)ncc2F)[C@H]1C(=O)O (racemic) [Compound I-161]	B (B = −20 ≤ peak change from baseline at 10 mpk ≤ −10)					
Fc1ccccc1Cn1nc(-c2ncc(F)c(N3CCOCC3)n2)cc1-c1ccon1 [Compound I-3]		80 to 100	60 to 80			
N#Cc1cnc(-c2cc(-c3ccon3)n(Cc3ccccc3F)n2)nc1N1CCOCC1 [Compound I-29]		40 to 60		100 to 500		
Fc1ccccc1Cn1nc(-c2ncc(F)c(NC3CCNCC3)n2)cc1-c1ccon1 [Compound I-36]		80 to 100	40 to 60	100 to 500	1000 to 5000	
CC(C)[C@@H](C(=O)O)N(C)c1nc(-c2cc(-c3ccon3)n(Cc3ccccc3F)n2)ncc1F [Compound I-89]	C (C = peak change from baseline at 10 mpk < −20)		60 to 80		1 to 100	< 0.1
O=C(O)[C@H]1c2ccccc2CCN1c1nc(-c2cc(-c3ccon3)n(Cc3ccccc3F)n2)ncc1F [Compound I-121]	A (A = −10 < peak change from baseline at 10 mpk < 0)		60 to 80		100 to 500	
CC1(C(=O)O)CCN(c2nc(-c3cc(-c4ccon4)n(Cc4ccccc4F)n3)ncc2F)CC1 [Compound I-124]	B (B = −20 ≤ peak change from baseline at 10 mpk ≤ −10)		60 to 80		1 to 100	
CN(c1nc(-c2cc(-c3ccon3)n(Cc3ccccc3F)n2)ncc1F)C(C(=O)O)c1ccccc1 (stereo not drawn) [Compound I-142]	A (A = −10 < peak change from baseline at 10 mpk < 0)		80 to 100		1 to 100	
CC1(C(=O)O)CCN(c2nc(-c3cc(-c4ccon4)n(Cc4ccccc4F)n3)ncc2F)C1 (stereo not drawn) [Compound I-143]	B (B = −20 ≤ peak change from baseline at 10 mpk ≤ −10)		80 to 100		100 to 500	
O=C(O)C1(C(F)(F)F)CCN(c2nc(-c3cc(-c4ccon4)n(Cc4ccccc4F)n3)ncc2F)C1 (stereo not drawn) [Compound I-185]	A (A = −10 < peak change from baseline at 10 mpk < 0)		100 to 120		1000 to 5000	
O=C(O)C1(c2ccccc2)CCN(c2nc(-c3cc(-c4ccon4)n(Cc4ccccc4F)n3)ncc2F)CC1 [Compound I-186]	B (B = −20 ≤ peak change from baseline at 10 mpk ≤ −10)		80 to 100		1 to 100	< 0.1
CC(C)[C@@H](C(=O)NS(=O)(=O)C1CC1)N(C)c1nc(-c2cc(-c3ccon3)n(Cc3ccccc3F)n2)ncc1F [Compound I-187]	A (A = −10 < peak change from baseline at 10 mpk < 0)		80 to 100		1 to 100	< 0.1
O=C(O)[C@H]1[C@@H]2CN(c3nc(-c4cc(-c5ccon5)n(Cc5ccccc5F)n4)ncc3F)C[C@@H]21 [Compound I-271]		80 to 100		1 to 100		
CC(C)C1(C(=O)O)CCN(c2nc(-c3cc(-c4ccon4)n(Cc4ccccc4F)n3)ncc2F)CC1 [Compound I-306]	B (B = −20 ≤ peak change from baseline at 10 mpk ≤ −10)		80 to 100		1 to 100	< 0.1
OC[C@@H](O)CNc1nc(-c2cc(-c3ccon3)n(Cc3ccccc3F)n2)ncc1F [Compound I-313]	C (C = peak change from baseline at 10 mpk < −20)					< 0.1
OCC(CO)Nc1nc(-c2cc(-c3ccon3)n(Cc3ccccc3F)n2)ncc1F [Compound I-315]	C (C = peak change from baseline at 10 mpk < −20)					< 0.1
OC[C@H](O)CNc1nc(-c2cc(-c3ccon3)n(Cc3ccccc3F)n2)ncc1F [Compound I-316]	C (C = peak change from baseline at 10 mpk < −20)					< 0.1
OC(CNc1nc(-c2cc(-c3ccon3)n(Cc3ccccc3F)n2)ncc1F)(C(F)(F)F)C(F)(F)F [Compound I-324]	C (C = peak change from baseline at 10 mpk < −20)					0.101 to 1
C[C@H]1CCCN(c2nc(-c3cc(-c4ccon4)n(Cc4ccccc4F)n3)ncc2F)[C@H]1C(=O)O [Compound I-329]	B (B = −20 ≤ peak change from baseline at 10 mpk ≤ −10)					
C[C@@H]1CCCN(c2nc(-c3cc(-c4ccon4)n(Cc4ccccc4F)n3)ncc2F)[C@@H]1C(=O)O [Compound I-330]	C (C = peak change from baseline at 10 mpk < −20)					
OC(CNc1nc(-c2cc(-c3ccon3)n(Cc3ccccc3F)n2)ncc1F)C(F)(F)F (stereo not drawn) [Compound I-337]	C (C = peak change from baseline at 10 mpk < −20)					< 0.1
C[C@H]1CCCN(c2nc(-c3cc(-c4ccon4)n(Cc4ccccc4F)n3)ncc2F)[C@H]1c1nn[nH]n1 [Compound I-341]	A (A = −10 < peak change from baseline at 10 mpk < 0)					< 0.1
CN(CC1(C(=O)O)CCC1)c1nc(-c2cc(-c3ccon3)n(Cc3ccccc3F)n2)ncc1F [Compound I-342]	C (C = peak change from baseline at 10 mpk < −20)					< 0.1
O=S(=O)(NC1CN(c2nc(-c3cc(-c4ccon4)n(Cc4ccccc4F)n3)ncc2F)C1)C(F)(F)F [Compound I-388]	B (B = −20 ≤ peak change from baseline at 10 mpk ≤ −10)					< 0.1
CC(O)(CNc1nc(-c2cc(-c3ccon3)n(Cc3ccccc3F)n2)ncc1F)C(N)=O (stereo not drawn) [Compound I-389]	C (C = peak change from baseline at 10 mpk < −20)					< 0.1
O=C(Nc1ccnc(-c2cc(-c3ccon3)n(Cc3ccccc3F)n2)n1)C(O)(C(F)(F)F)C(F)(F)F [Compound I-400]	B (B = −20 ≤ peak change from baseline at 10 mpk ≤ −10)					0.101 to 1
NC(=O)C(O)(CNc1nc(-c2cc(-c3ccon3)n(Cc3ccccc3F)n2)ncc1F)C(F)(F)F (stereo not drawn) [Compound I-405]	C (C = peak change from baseline at 10 mpk < −20)					0.101 to 1
CC[C@H]1CCCN(c2nc(-c3cc(-c4ccon4)n(Cc4ccccc4F)n3)ncc2F)[C@H]1C(=O)O [Compound I-455]			80 to 100		1 to 100	< 0.1
